Calls of active or inactive are those of the source. The calls are words filed in the database; no cut-off is given here.
Assays:
[1] = Induction of apoptosis in human T98 cells assessed as total death rate at 50 uM after 24 hrs by Annexin-V-FITC/propidium iodide staining based flow cytometry analysis (reference value: 3.8 %); format: functional
T98 [2] = test: Antiproliferative activity against human T98 cells assessed as reduction in survival rate at 1 to 100 uM after 24 hrs by MTT assay; format: functional, cell-based
[3] = Antiproliferative activity against human T98 cells assessed as reduction in survival rate at 50 uM after 24 hrs by MTT assay relative to control; format: functional
[4] = Reduction in Cox-2 mRNA expression levels in human T98 cells by real-time PCR assay; format: functional, cell-based
T98 [5] = test: Effect on caspase 9 mRNA expression levels in human T98 cells at 50 to 100 uM by real-time PCR assay; format: functional, cell-based
[6] = Antiproliferative activity against human T98 cells assessed as reduction in survival rate at 100 uM after 24 hrs by MTT assay relative to control; format: functional
T98 [7] = test: Induction of apoptosis in human T98 cells assessed as alive cells at 100 uM after 24 hrs by Annexin-V-FITC/propidium iodide staining based flow cytometry analysis (reference value: 95 +/- 5.6 %); format: functional
T98 [8] = test: Induction of apoptosis in human T98 cells assessed as early apoptotic cells at 50 uM after 24 hrs by Annexin-V-FITC/propidium iodide staining based flow cytometry analysis (reference value: 1.1 +/- 0.3 %); format: functional
T98 [9] = test: Induction of apoptosis in human T98 cells assessed as early apoptotic cells at 100 uM after 24 hrs by Annexin-V-FITC/propidium iodide staining based flow cytometry analysis (reference value: 1.1 +/- 0.3 %); format: functional
T98 [10] = test: Effect on caspase 3 mRNA expression levels in human T98 cells at 50 to 100 uM by real-time PCR assay; format: functional, cell-based
T98 [11] = test: Induction of apoptosis in human T98 cells assessed as late apoptotic cells at 100 uM after 24 hrs by Annexin-V-FITC/propidium iodide staining based flow cytometry analysis (reference value: 2.7 +/- 1.4 %); format: functional
[12] = Induction of apoptosis in human T98 cells assessed as total death rate at 100 uM after 24 hrs by Annexin-V-FITC/propidium iodide staining based flow cytometry analysis (reference value: 3.8 %); format: functional
T98 [13] = test: Effect on caspase 8 mRNA expression levels in human T98 cells at 50 to 100 uM by real-time PCR assay; format: functional, cell-based
T98 [14] = test: Induction of apoptosis in human T98 cells assessed as late apoptotic cells at 50 uM after 24 hrs by Annexin-V-FITC/propidium iodide staining based flow cytometry analysis (reference value: 2.7 +/- 1.4 %); format: functional
T98 [15] = test: Induction of apoptosis in human T98 cells assessed as alive cells at 50 uM after 24 hrs by Annexin-V-FITC/propidium iodide staining based flow cytometry analysis (reference value: 95 +/- 5.6 %); format: functional
T98 [16] = test: Effect on cytochrome-c mRNA expression levels in human T98 cells at 50 to 100 uM by real-time PCR assay; format: functional, cell-based

For `COc1ccc2c(c1)c(Cc1nnc3n1N=C(c1ccc(C)cc1)CS3)c(C)n2C(=O)c1ccc(Cl)cc1`, the Activity [1] was 49%, the Activity (T98 [2]) was “Active” and the Activity [3] was 25%. For the same compound, the Activity [4] was “Dose-dependent effect”, the Activity (T98 [5]) was “inactive” and the Activity [6] was 40%. The Activity (T98 [7]) was 31%, the Activity (T98 [8]) was 11% and the Activity (T98 [9]) was 12%. For the same compound, the Activity (T98 [10]) was “inactive”, the Activity (T98 [11]) was 47% and the Activity [12] was 59%. For the same compound, the Activity (T98 [13]) was “inactive”, the Activity (T98 [14]) was 38% and the Activity (T98 [15]) was 39%. The Activity (T98 [16]) was “inactive”.
